In ChEMBL document CHEMBL3769379, “SAR Studies of 5-Aminopyrazole-4-carboxamide Analogues as Potent and Selective Inhibitors of Toxoplasma gondii CDPK1” (ACS Med Chem Lett, 2015):
Calls of active or inactive are those of the source. No cut-off for these calls is given here.

Experiments:
[1] = Cytotoxicity against human CRL8155 cells after 48 hrs by Alamar Blue assay; assay type: cell-based; conditions: crl8155, 48 h
[2] = target: T1, Calmodulin-domain protein kinase 1 (Toxoplasma gondii, UniProt Q9BJF5)
T1 sequence (Q9BJF5 whole entry): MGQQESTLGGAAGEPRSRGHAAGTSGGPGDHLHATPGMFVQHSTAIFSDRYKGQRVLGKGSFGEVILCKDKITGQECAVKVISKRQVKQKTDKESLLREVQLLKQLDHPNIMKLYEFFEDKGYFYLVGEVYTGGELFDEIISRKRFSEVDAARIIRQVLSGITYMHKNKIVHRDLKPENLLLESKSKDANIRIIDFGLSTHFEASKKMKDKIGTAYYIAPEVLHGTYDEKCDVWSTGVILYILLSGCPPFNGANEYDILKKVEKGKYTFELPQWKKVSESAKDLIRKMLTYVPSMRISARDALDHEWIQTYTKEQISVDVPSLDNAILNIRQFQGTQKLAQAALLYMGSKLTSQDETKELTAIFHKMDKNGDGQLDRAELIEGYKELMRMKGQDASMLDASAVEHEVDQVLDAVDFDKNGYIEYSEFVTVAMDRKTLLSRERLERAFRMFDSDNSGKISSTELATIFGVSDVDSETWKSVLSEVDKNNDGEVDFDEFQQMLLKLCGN

[3] = Solubility of the compound in PBS incubated overnight at pH 6.5 by HPLC-UV analysis; assay type: physicochemical; conditions: buffer
[4] = Ratio of drug level in brain to plasma in mouse at 5 mg/kg, ip by LC/MS analysis; assay type: ADME, organism-based
[5] = system: Mus musculus; experiment: Toxicity in CF-1 mouse infected with Toxoplasma gondii RH assessed as weight loss at 20 to 50 mg/kg, po qd administered for 5 days; assay type: organism-based; conditions: in vivo, 120 h
[6] = system: Mus musculus; experiment: Toxicity in CF-1 mouse infected with Toxoplasma gondii RH assessed as altered grooming at 20 to 50 mg/kg, po qd administered for 5 days; assay type: organism-based; conditions: in vivo, 120 h
[7] = system: Mus musculus; experiment: Toxicity in CF-1 mouse infected with Toxoplasma gondii RH assessed as lethargy at 20 to 50 mg/kg, po qd administered for 5 days; assay type: organism-based; conditions: in vivo, 120 h
[8] = system: Toxoplasma gondii; experiment: Antiprotozoan activity against Toxoplasma gondii infected in fibroblasts assessed as growth inhibition at low concentration after 2 days by beta-galactosidase reporter assay; assay type: functional, organism-based
[9] = system: Toxoplasma gondii; experiment: Antiprotozoan activity against Toxoplasma gondii overexpressing wild type CDPK1 infected in fibroblasts assessed as growth inhibition at low concentration after 2 days by beta-galactosidase reporter assay; assay type: functional, organism-based
[10] = target: Proto-oncogene tyrosine-protein kinase Src (Homo sapiens, UniProt P12931)
[11] = system: Toxoplasma gondii; experiment: Antiprotozoan activity against Toxoplasma gondii RH infected in CF-1 mouse assessed as reduction of parasite burden in brain at 20 to 50 mg/kg, po qd administered for 5 days measured 24 hrs post last dose by quantitative RT-PCR analysis relative to control; assay type: functional
[12] = system: Mus musculus; experiment: Toxicity in CF-1 mouse infected with Toxoplasma gondii RH assessed as mortality at 50 mg/kg, po qd administered for 5 days measured on day 5; assay type: organism-based; conditions: in vivo, 120 h
[13] = system: Mus musculus; experiment: Toxicity in CF-1 mouse infected with Toxoplasma gondii RH assessed as lethargy at 20 mg/kg, po qd administered for 5 days; assay type: organism-based; conditions: in vivo, 120 h
[14] = human, plasma, 4 h
Description: Fraction unbound in human plasma after 4 hrs by LC/MS analysis

[15] = system: Toxoplasma gondii; experiment: Antiprotozoan activity against Toxoplasma gondii RH infected in CF-1 mouse assessed as reduction of parasite burden in peritoneal fluid at 5 to 10 mg/kg, po bid administered for 5 days measured 24 hrs post last dose by hemocytometer-based fluorescence microscopy; assay type: functional, organism-based
[16] = system: Mus musculus; experiment: Toxicity in CF-1 mouse infected with Toxoplasma gondii RH assessed as weight loss at 5 to 40 mg/kg, po bid administered for 5 days; assay type: organism-based; conditions: in vivo, 120 h
[17] = system: Mus musculus; experiment: Toxicity in CF-1 mouse infected with Toxoplasma gondii RH assessed as altered grooming at 5 to 40 mg/kg, po bid administered for 5 days; assay type: organism-based; conditions: in vivo, 120 h
[18] = system: Mus musculus; experiment: Toxicity in CF-1 mouse infected with Toxoplasma gondii RH assessed as lethargy at 5 to 40 mg/kg, po bid administered for 5 days; assay type: organism-based; conditions: in vivo, 120 h
[19] = system: Toxoplasma gondii; experiment: Antiprotozoan activity against Toxoplasma gondii RH infected in CF-1 mouse assessed as reduction of parasite burden in peritoneal fluid at 20 to 40 mg/kg, po bid administered for 5 days measured 24 hrs post last dose by hemocytometer-based fluorescence microscopy relative to control; assay type: functional

Chain of Proto-oncogene tyrosine-protein kinase Src (P12931 2-536 limits assumed): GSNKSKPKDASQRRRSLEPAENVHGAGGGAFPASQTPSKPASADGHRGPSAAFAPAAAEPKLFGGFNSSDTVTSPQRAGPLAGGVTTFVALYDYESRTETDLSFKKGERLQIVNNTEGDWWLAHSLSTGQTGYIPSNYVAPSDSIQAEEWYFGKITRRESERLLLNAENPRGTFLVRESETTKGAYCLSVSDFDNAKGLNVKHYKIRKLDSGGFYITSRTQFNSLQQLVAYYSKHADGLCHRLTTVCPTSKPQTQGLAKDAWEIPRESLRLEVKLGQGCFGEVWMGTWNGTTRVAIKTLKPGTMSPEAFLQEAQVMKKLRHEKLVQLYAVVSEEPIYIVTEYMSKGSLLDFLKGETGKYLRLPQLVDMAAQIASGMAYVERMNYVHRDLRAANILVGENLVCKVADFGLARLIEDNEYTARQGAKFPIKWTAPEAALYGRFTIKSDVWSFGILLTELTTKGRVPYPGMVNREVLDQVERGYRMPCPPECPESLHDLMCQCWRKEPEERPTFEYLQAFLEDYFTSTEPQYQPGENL

| Compound | Activity [1] [µM] | IC50 [2] [nM] | other results |
| --- | --- | --- | --- |
| CCOc1ccc2cc(-c3nn(C(C)(C)C)c(N)c3C(N)=O)ccc2n1 | > 40 |  |  |
| CC(C)(C)n1nc(-c2ccc3nc(OC4CCC4)ccc3c2)c(C(N)=O)c1N | > 40 | 12 |  |
| CC(C)(C)n1nc(-c2cnc3cc(OC(F)(F)F)ccc3c2)c(C(N)=O)c1N |  | 39 |  |
| CCOc1ccc2cc(-c3nn(C(C)C)c(N)c3C(N)=O)ccc2n1 | > 40 | 6.5 |  |
| CC(C)(C)n1nc(-c2cnc3cc(F)ccc3c2)c(C(N)=O)c1N | > 40 |  |  |
| CCOc1ccc2cc(-c3nn(C4CCC4)c(N)c3C(N)=O)cnc2c1 | > 40 |  |  |
| CC(C)(C)n1nc(-c2cnc3cc(OC4CC4)ccc3c2)c(C(N)=O)c1N | > 40 |  | solubility [3]: soluble; BPR [4]: 16%; Activity [5]: Non-toxic; Activity [6]: Non-toxic; Activity [7]: Non-toxic; growth inhibition (GI) [8]: inactive; growth inhibition (GI) [9]: inactive |
| CCOc1ccc2cc(-c3nn(CC4CC4)c(N)c3C(N)=O)ccc2n1 | > 40 | 7.9 |  |
| CCOc1ccc2cc(-c3nn(CC(C)(C)CO)c(N)c3C(N)=O)cnc2c1 | > 40 |  | IC50 [10]: > 10000 nM |
| CC(C)(C)n1nc(-c2ccc3nc(OC4CC4)ccc3c2)c(C(N)=O)c1N | > 40 | 4.6 | BPR [4]: 43%; fold change (FC) [11]: >5; Activity [5]: Non-toxic; Activity [6]: Non-toxic; Activity [12]: Toxic; growth inhibition (GI) [8]: inactive; growth inhibition (GI) [9]: inactive; Activity [13]: Non-toxic; Fu [14]: 88% |
| CCOc1ccc2cc(-c3nn(C4CCCCC4)c(N)c3C(N)=O)ccc2n1 | > 40 | 5.5 |  |
| CCOc1ccc2cc(-c3nn(CC(C)(C)CO)c(N)c3C(N)=O)ccc2n1 | > 40 |  | solubility [3]: soluble |
| CCOc1ccc2cc(-c3nn(C4CCCCCC4)c(N)c3C(N)=O)cnc2c1 | > 40 |  |  |
| CCOc1ccc2cc(-c3nn(C4CCCC4)c(N)c3C(N)=O)cnc2c1 | > 40 |  |  |
| CC(C)(C)n1nc(-c2cnc3cc(OC4CCC4)ccc3c2)c(C(N)=O)c1N | > 40 | 7 | solubility [3]: Insoluble |
| COc1ccc2cc(-c3nn(C(C)(C)C)c(N)c3C(N)=O)cnc2c1 | > 40 |  |  |
| CC(C)(C)n1nc(-c2cnc3cc(OCC4CC4)ccc3c2)c(C(N)=O)c1N | > 40 |  | IC50 [10]: > 10000 nM |
| CCOc1ccc2cc(-c3nn(C(C)(C)C)c(N)c3C(N)=O)cnc2c1 |  |  | solubility [3]: Insoluble; BPR [4]: 15.8%; Activity [15]: Active; Activity [16]: Non-toxic; Activity [17]: Non-toxic; Activity [18]: Non-toxic; fold change (FC) [19]: >10; Fu [14]: 57% |
| CCOc1ccc2cc(-c3nn(CC4CC4)c(N)c3C(N)=O)cnc2c1 | > 40 | 15 |  |
| CCCOc1ccc2cc(-c3nn(C(C)(C)C)c(N)c3C(N)=O)cnc2c1 | > 40 |  |  |
| CCOc1ccc2cc(-c3nn(C(C)CO)c(N)c3C(N)=O)cnc2c1 (centres undefined) |  | 26 |  |
| CCOc1ccc2cc(-c3nn(CC(C)(C)O)c(N)c3C(N)=O)cnc2c1 |  | 113 |  |
| CC(C)Oc1ccc2cc(-c3nn(C(C)(C)C)c(N)c3C(N)=O)cnc2c1 | > 40 | 16 |  |
| CCOc1ccc2cc(-c3nn(C4CCCCCC4)c(N)c3C(N)=O)ccc2n1 |  | 17 |  |
